Results on 19 compounds are retold here after ChEMBL document CHEMBL3045874, “2,4-D based herbicidal ionic liquids” (Tetrahedron, 2012).

Data set [1] relates to Capsella bursa-pastoris. Nature of the data set: Herbicidal activity against Capsella bursa-pastoris assessed as weed control at 0.02 M measured after 30 days of treatment relative to control. The data set is classed as functional.
Data set [2] deals with Capsella bursa-pastoris. Nature of the data set: Herbicidal activity against Capsella bursa-pastoris assessed as weed control at 0.01 M measured after 30 days of treatment relative to control. The data set is classed as functional.
Data set [3] deals with Capsella bursa-pastoris. In words: Herbicidal activity against Capsella bursa-pastoris assessed as weed control at 0.02 M measured after 6 days of treatment relative to control. The format is functional.
In data set [4] the test system is Capsella bursa-pastoris. In words: Herbicidal activity against Capsella bursa-pastoris assessed as weed control at 0.01 M measured after 6 days of treatment relative to control. The format is functional.
Data set [5] has as its system Thlaspi arvense. In words: Herbicidal activity against Thlaspi arvense assessed as weed control at 0.02 M measured after 30 days of treatment relative to control. The data set is classed as functional.
The test system of data set [6] is Thlaspi arvense. In words: Herbicidal activity against Thlaspi arvense assessed as weed control at 0.01 M measured after 30 days of treatment relative to control. The format is functional.
Data set [7] relates to Thlaspi arvense. In words: Herbicidal activity against Thlaspi arvense assessed as weed control at 0.02 M measured after 6 days of treatment relative to control. The data set is classed as functional.
In data set [8] the test system is Thlaspi arvense. In words: Herbicidal activity against Thlaspi arvense assessed as weed control at 0.01 M measured after 6 days of treatment relative to control. The format is functional.
Data set [9] has as its system Chenopodium album. Nature of the data set: Herbicidal activity against Chenopodium album assessed as weed control at 0.02 M measured after 30 days of treatment relative to control. The format is functional.
In data set [10] the test system is Chenopodium album. Nature of the data set: Herbicidal activity against Chenopodium album assessed as weed control at 0.01 M measured after 30 days of treatment relative to control. The format is functional.
Data set [11] relates to Chenopodium album. Nature of the data set: Herbicidal activity against Chenopodium album assessed as weed control at 0.02 M measured after 6 days of treatment relative to control. The data set is classed as functional.
Data set [12] deals with Chenopodium album. In words: Herbicidal activity against Chenopodium album assessed as weed control at 0.01 M measured after 6 days of treatment relative to control. The data set is classed as functional.
For data set [13] the following is noted: buffer.
Data set [14] is described as follows: Decomposition temperature of the compound. The format is physicochemical.
Data set [15] in a line: Decomposition temperature of 5 % of the compound. The format is physicochemical.
The nature of data set [16]: Glass transition temperature of the compound. The data set is classed as physicochemical.
The nature of data set [17]: Melting point of the compound. The data set is classed as physicochemical.
A further data set has as its system Centaurea cyanus. Nature of the data set: Herbicidal activity against Centaurea cyanus assessed as weed control at 450 g/ha. The format is functional.
Data set [18] has as its system Chenopodium album. In words: Herbicidal activity against Chenopodium album assessed as weed control at 450 g/ha. The format is functional.
Data set [19] in a line: Cold crystallization temperature of the compound. The format is physicochemical.

For `O=C([O-])COc1ccc(Cl)cc1Cl.[Na+]`, the Activity is given as 100% with Capsella bursa-pastoris [1]; 100% with Capsella bursa-pastoris [2]; 55% in the data set on Capsella bursa-pastoris [3]; 28% in the data set with Capsella bursa-pastoris [4]; 100% in the data set with Thlaspi arvense [5]; 100% in the data set on Thlaspi arvense [6]. Also, the Activity stood at 48% in the data set on Thlaspi arvense [7]; 31% with Thlaspi arvense [8]; 75% in the data set with Chenopodium album [9]; 25% in the data set on Chenopodium album [10]; 60% in the data set with Chenopodium album [11]; 55% in the data set on Chenopodium album [12].

With `CCCC[N+]1(C)CCOCC1.O=C([O-])COc1ccc(Cl)cc1Cl`, the solubility entry in [13] is on record as “soluble”.

As for `CCCC[N+]1(C)CCCC1.O=C([O-])COc1ccc(Cl)cc1Cl`, the solubility result in data set [13] is listed as “soluble”.

As for `CCCCCOC[N+]1(C)CCCCC1.O=C([O-])COc1ccc(Cl)cc1Cl`, in [13], the solubility entry is “soluble”.

For the compound `CCCOC[N+]1(C)CCCCC1.O=C([O-])COc1ccc(Cl)cc1Cl`, the solubility entry in data set [13] is “soluble”.

As for `C[N+]1(C)CCCCC1.O=C([O-])COc1ccc(Cl)cc1Cl`, in data set [13], the solubility entry was “soluble”.

As for `C[n+]1cccc(C(N)=O)c1.O=C([O-])COc1ccc(Cl)cc1Cl`, the solubility entry in data set [13] is “soluble”.

Consider `CCCCCCCCCCCCCCCC[n+]1ccccc1.O=C([O-])COc1ccc(Cl)cc1Cl`, for which the solubility entry in [13] is listed as “soluble”.

For `CCCCCCCCSCn1cc[n+](C)c1.O=C([O-])COc1ccc(Cl)cc1Cl`, in data set [13], the solubility result is given as “soluble”.

On to `CCCCCCCCOCn1cc[n+](C)c1.O=C([O-])COc1ccc(Cl)cc1Cl`, for which the solubility entry in data set [13] is recorded as “soluble”.

On to `CCCCCCCCCCSC[N+](C)(C)CCO.O=C([O-])COc1ccc(Cl)cc1Cl`, for which the T is 219 °C in data set [14], 205 °C in [15] and -35 °C in [16]. Besides, the solubility entry in data set [13] is reported as “soluble”.

In the case of `C[N+](C)(CCO)COC1CCCCCCCCCCC1.O=C([O-])COc1ccc(Cl)cc1Cl`, the T is 280 °C in data set [14] and 242 °C in data set [15]. In data set [17], the Tm was 108 °C.

On to `CNC.O=C(O)COc1ccc(Cl)cc1Cl` [2,4-D-Dimethylammonium], for which the Activity is given as 20% with Centaurea cyanus and 60% with Chenopodium album [18].

Consider `CCCCCC(CC)OC(=O)COc1ccc(Cl)cc1Cl` [2,4-D-Ethylhexyl], for which the Activity with Centaurea cyanus was 80%; in the data set with Chenopodium album [18], 100%.

With `C=CC[N+](C)(C)CC=C.O=C([O-])COc1ccc(Cl)cc1Cl` [DIALLYLDIMETHYLAMMONIUM(2,4-DICHLOROPHENOXY)ACETATE], the results for the T in data set [14], in data set [15] and in data set [16] were 196 °C, 187 °C and -42 °C, respectively. Moreover, the solubility entry in data set [13] was “soluble”.

For the compound `CCCCCCCCCC[N+](C)(C)CCCCCCCCCC.O=C([O-])COc1ccc(Cl)cc1Cl` [DIDECYLDIMETHYLAMMONIUM(2,4-DICHLOROPHENOXY)ACETATE], the Activity in the data set on Capsella bursa-pastoris [1] is 100%; with Capsella bursa-pastoris [2], 100%; in the data set with Capsella bursa-pastoris [3], 99%; in the data set with Capsella bursa-pastoris [4], 81%; in the data set with Thlaspi arvense [5], 100%; in the data set with Thlaspi arvense [6] it was 100%. In addition, the Activity was 96% with Thlaspi arvense [7]; 82% with Thlaspi arvense [8]; 100% in the data set with Chenopodium album [9]; 100% in the data set on Chenopodium album [10]; 98% with Chenopodium album [11]; 89% in the data set on Chenopodium album [12]. Further, the T was -39 °C in data set [19], 260 °C in [14], 208 °C in data set [15] and -50 °C in data set [16]. In [17], the Tm was -3 °C.

Consider `CCCCCCCCCCCCCCCC[N+](C)(C)CCO.O=C([O-])COc1ccc(Cl)cc1Cl` [DODECYLDI(POLYOXYETHYLENE)METHYLAMMONIUM(2,4-DICHLOROPHENOXY)ACETATE], for which the figures for the T in data set [14], in data set [15] and in data set [16] were 285 °C, 219 °C and -54 °C, respectively.

Consider `CCCCCCCCCCCC[N+](C)(C)CCOc1ccccc1.O=C([O-])COc1ccc(Cl)cc1Cl` [DODECYLDIMETHYLPHENOXYETHYLAMMONIUM(2,4-DICHLOROPHENOXY)ACETATE], for which the T in data set [14] was 273 °C; in data set [15] it was 214 °C; in [16] it was -42 °C.

Take `CCCCCCCCCCCCCCCC[N+](C)(C)C.O=C([O-])COc1ccc(Cl)cc1Cl` [HEXADECYLTRIMETHYLAMMONIUM(2,4-DICHLOROPHENOXY)ACETATE]: the T came out at 253 °C in [14] and 218 °C in data set [15]. Besides, the Tm in data set [17] is -20 °C.
